In patent US20050203013A1, “Methods for inhibiting vascular permeability” (priority 2002, published 2005):

Columns and labels:
[1] = test system: A2058 human melanoma tumor vessel permeability; test: Miles assay on tumor-bearing mice (Example 2); type: in vivo, SCID mice; details: 30 mg/kg/day for three days
Protocol: One of the problems with angiogenesis-dependent diseases is increased vessel permeability (due to high levels of VPF) which results in edema and loss of proteins. A decrease in vessel permeability is beneficial in those diseases. We have found, using the Miles assay ([…], et al., Cancer Res, 56:172-181 (1996)), that free and bound TNP-470 block permeability. Briefly, a dye, Evans Blue (1% in PBS), was injected i.v. to anesthesized mice. After 10 min, human recombinant VEGF165 (50 ng/50 μl) was injected intradermally into the back skin. Leakage of protein-bound dye was detected as blue spots on the underside of the back skin surrounding the injection site. After 20 min mice were euthanized. Then, the skin was excised, left in formamide for 5 days to be extracted and the solution read at 620 nm. Putative angiogenesis inhibitors such as free and conjugated TNP-470 were injected daily 3 days (30 mg/kg/day) prior to the VEGF challenge. The same was repeated on tumor-bearing mice to evaluate the effect of angiogenesis inhibitors on tumor vessel permeability.

VEGFR-2 = VEGFR-2 phosphorylation in HMVEC-d; type: cell-based, Human; details: 5 ng/ml for 2 hours
Protocol: Serum-starved (0.1% FBS in EBM-2 media for 24 hours) HMVEC-d or HUVEC were treated with 5 ng/ml TNP-470 and HPMA copolymer-TNP-470 at 37° C. for 2 hours, and then stimulated with 10 ng/ml of VEGF for 5 minutes. Stimulation was stopped by adding cold PBS. […] After washing the beads with precipitation buffer, immunoprecipitates were resuspended in 2× SDS sample buffer for Western blot analysis with an antibody against phosphorylated tyrosine (pTyr).

skin vessel permeability = test: Miles vascular permeability assay (Example 3); type: in vivo, SCID mice
Protocol: SCID mice were injected subcutaneously (s.c.) with TNP-470 or HPMA copolymer-TNP-470 (30 mg/Kg TNP-equiv.) for three days, with Y27632 (50 nM s.c.) for 11 days, with angiostatin (200 mg/kg/day s.c.) for five days, or with saline (250 μl s.c.) for 5 days (n=12) prior to performing the Miles assay ([…] et al., 1996; Miles and Miles, 1952; Streit et al., 2000). Briefly, Evan's blue dye (100 μl of a 1% solution in 0.9% NaCl) was injected intravenously (i.v.) into mice. After 10 minutes, 50 μl of human VEGF165 (1 ng/μl), PAF (100 μM), CNF-1 (100 ng), histamine (1.2 μg/ml) or PBS (50 ul) were injected intradermally into the pre-shaved back skin. After 20 minutes, the animals were euthanized and an area of skin that included the blue spot resulting from leakage of the dye was removed. Evan's blue dye was extracted from the skin by incubation with formamide for 5 days at room temperature, and the absorbance of extracted dye was measured at 620 nm using a spectrophotometer. The unpaired Student t test was used for statistical analysis.

MAPK = test: Phosphorylation of MAPK; type: cell-based, Human; details: HMVEC-d
Protocol: Serum-starved HMVEC-d were treated with 5 ng/ml TNP-470 at 37° C. for 2 hours, and then stimulated with 10 ng/ml of VEGF for 5 minutes. Stimulation was stopped by adding cold PBS. Cells were lysed with cold radioimmune precipitation buffer. Cellular extracts (20 μg) were immunoblotted with an antibody against phosphorylated MAPK (p-MAPK) (Cell Signaling Technology Inc.). The blot was stripped and reprobed with an antibody against MAPK to confirm equal protein loading.

[2] = test system: U87 glioblastoma tumor blood vessel permeability; test: Miles assay on tumor-bearing mice (Example 3), U87; parameters: species or system SCID mice; details: mouse, in vivo
Protocol: Female SCID mice ( 8 weeks, 20 g) were inoculated s.c. with 5×10^6 viable U87 glioblastoma cells or viable A2058 human melanoma cells or BXPC3 pancreas adenocarcinoma cells. Female nu/nu mice were inoculated with MCF-7 or MDA-MB-231 breast carcinoma cells in the mammary fat pad. C57B1/6J were inoculated with LLC. […] blue dye was then injected i.v. and extravasation of dye assessed as above. Also, blood was withdrawn to measure VPF/VEGF levels in plasma and in tumors (n=5 from each group). Tumors (n=5 per group) were dissected, weighed and cut in half. Half of the tumor was placed in formalin and half was analyzed for VPF/VEGF protein by ELISA (see below). Formalin fixed tumors were processed for sectioning and staining with H & E, CD31, smooth muscle actin (SMA) and proliferating cell nuclear antigen (PCNA) according to the manufacturers' instructions.

[3] = test system: IL-2-induced pulmonary edema; test: IL-2 associated pulmonary edema; type: in vivo, C57B1/6J male mice
Protocol: C57B1/6J male mice were injected with TNP-470 (30 mg/kg daily) or saline subcutaneously (s.c.) for three days. Then mice were injected with IL-2 (1.2×106 units/100 μl) or saline intraperitoneally (i.p.) 3 times a day for 5 days. At termination mice were euthanized and lungs were dissected, weighed, fixed and processed for H & E staining.

[4] = test system: VEGF-induced skin permeability; test: Modified Miles assay with VEGF dose response; type: in vivo, C57 mice; details: 30 mg/kg/d s.c. for 3 days, intradermal VEGF
From the text: TNP-470, HPMA copolymer-TNP-470 and angiostatin all inhibited Evan's blue extravasation into A2058 melanoma (P<0.03 versus control), murine Lewis lung carcinoma (P<0.05), MCF-7 breast carcinoma (P<0.04), MDA-MB-231 breast carcinoma (P<0.05) and BXPC3 pancreatic adenocarcinoma (P<0.04) by 40-90% compared to control tumors treated with saline (FIG. 16B). […] In order to test the effect of VEGF secreted from the tumor and the ability of TNP-470 to inhibit the permeability induced by such amount of VEGF, a modified Miles assay using a dose response of VEGF was used. Groups of 8 week old C57 mice were treated with TNP-470 (30 mg/kg/d s.c. for 3 days) or with saline. Then we injected 100 μl 1% Evan's Blue i.v. and after 10 min injected VEGF intradermally at different concentrations. We collected skin punch biopsies and extracted dye with formamide at RT over 5 days and read the extracts at 620 nm (FIG. 16C).

liver regeneration = test: Liver regeneration after 2/3 hepatectomy; type: in vivo, C57 black male mice; details: post-operative day 8
Protocol: C57 black male mice underwent a ⅔ hepatectomy through a midline incision after general anesthesia with isoflourane. Free and conjugated TNP-470 (30 mg/kg) was given s.c. every other day for 8 days beginning on the day of surgery. The liver was harvested on the 8th day, weighed and analyzed for histology.

SMILES: CO[C@@H]1[C@H](OC(=O)NC(=O)CCl)CC[C@]2(CO2)[C@H]1[C@@]1(C)O[C@@H]1CC=C(C)C [TNP-470]
- tumor vessel permeability [1]: decreased
- VPF/VEGF-induced phosphorylation of VEGFR-2 (VEGFR-2): significantly reduced
- CNF-1-induced Evan's blue-albumin extravasation (skin vessel permeability; CNF-1 intradermal): inhibited
- decrease of PAF-induced permeability (skin vessel permeability; PAF intradermal): 75%
- low-level permeability induced by intradermal injections of PBS (skin vessel permeability; PBS intradermal): blocked
- inhibition of Evan's blue dye extravasation from VPF/VEGF injection sites (skin vessel permeability; VPF/VEGF intradermal): ~70%
- decrease of histamine-induced permeability (skin vessel permeability; histamine intradermal): 80%
- VPF/VEGF-induced MAPK phosphorylation (MAPK): inhibited
- Evan's blue extravasation into U87 glioblastomas [2]: did not inhibit
- total body weight ([3]; 3 days treatment): did not affect total body weight
- lung pathological features (congestion, edema, fibrin deposition, mononuclear infiltrate) ([3]; IL-2 treated mice): greatly reduced
- lung weight ([3]; mice treated with both IL-2 and TNP-470): 170.2 ± 10.1 mg
- VEGF dose up to which permeability was inhibited [4]: up to 25 ng
- average liver size (liver regeneration): 0.7 g
